# Experimental data: US10463651B2, “3-(1H-pyrrolo[3,2-C]pyridin-2-YL)-1H-indazoles and therapeutic uses thereof” (Samumed, LLC, priority 2015, dated 2019)
# pEC50: −log10 of the molar value.
# Columns and labels:
# Format in all cases: cell-based
# [1] = test system: Wnt activity (Sp5-Luc reporter, SW480 colon carcinoma cells); experiment: Screening assay for Wnt activity (Sp5-Luc reporter gene assay in SW480 cells); settings: Homo sapiens; for pEC50: Sp5-Luc reporter, SW480 cells, incubated overnight
# Source text: The screening assay for Wnt activity is described as follows. Reporter cell lines can be generated by stably transducing cancer cell lines (e.g., colon cancer) or primary cells (e.g., IEC-6 intestinal cells) with a lentiviral construct that includes a Wnt-responsive promoter driving expression of the firefly luciferase gene.
# SW480 colon carcinoma cells were transduced with a lentiviral vector expressing luciferase with a human Sp5 promoter consisting of a sequence of eight TCF/LEF binding sites. SW480 cells stably expressing the Sp5-Luc reporter gene and a hygromycin resistance gene were selected by treatment with 150 μg/mL of hygromycin for 7 days. These stably transduced SW480 cells were expanded in cell culture and used for all further screening activities. […] For Sp5-Luc reporter gene assays, the cells were plated at 4,000 cells/well in 384-well plates with medium containing 1% fetal bovine serum and incubated overnight at 37° C. and 5% CO2. Following incubation, 20 μl of BrightGlo luminescence reagent (Promega) was added to each well of the 384-well assay plates. The plates were placed on an orbital shaker for 2 min and then luminescence was quantified using the Envision (Perkin Elmer) plate reader. Readings were normalized to DMSO only treated cells, and normalized activities were utilized for EC50 calculations using the dose-response log (inhibitor) vs. response-variable slope (four parameters) nonlinear regression feature available in GraphPad Prism 5.0 (or Dotmatics).
# SW480 colon cancer cells = experiment: Cell viability assay (CellTiter-Blue); settings: Homo sapiens, 96 h; SW480 cell viability, four days, CellTiter-Blue
# Description: Representative compounds were screened using the following assay procedure to assess the effect on cell viability as described below.
# Approximately 2×10^3 SW480 colon cancer cells were seeded into each well and allowed to incubate in the presence or absence of compound for four days at 37° C./5% CO2. Eight replicates of DMSO-treated cells served as controls and cells treated with compound were performed in duplicate.
# After incubation, 20 μL of CellTiter-Blue (Promega) was added to each well allowed to incubate for approximately 3 hours. This reagent was a buffered solution which contains resazurin, metabolically active cells were able to reduce rezarurin (blue) into resorufin (pink) which was highly fluorescent. This measured fluorescence was used as a readout for cell viability.
# [2] = test system: primary human fibroblasts derived from IPF patients (LL29 cells) treated with TGF-β1; experiment: Inhibition of the fibrotic process (αSMA staining) in TGF-β1-treated fibroblasts; settings: Fibroblast, 96 h, % αSMA-positive LL29 cells, TGF-β1 20 ng/mL, 4 days
# Description: Representative compounds were screened using primary human fibroblasts (derived from IPF patients) treated with TGF-β1 to determine their ability to inhibit the fibrotic process.
# LL29 cells are plated at 1,500 cells/well in 80 μL/well F12 medium supplemented with 1% Fetal Bovine Serum. […] Wells treated with TGF-P1 and containing DMSO were used as controls. […] Following incubation for 4 days, SYTOX green nucleic acid stain (Life Technologies [Thermo Fisher Scientific]) was added to the wells at a final concentration of 1 μM and incubated at room temperature for 30 min.
# [3] = test system: primary human mesenchymal stem cells (hMSCs); experiment: Induction of chondrogenesis in hMSCs (Rhodamine B / Nile Red nodule imaging); settings: for Emax: maximum activity relative to TGF-β3 (10 ng/mL) positive control, read-out: Max. Activity as % TGF-β3 activity; for EC50: concentration required to induce 50% levels of chondrogenesis vs TGF-β3 positive control, read-out: Conc (nM) of 50% TGF-β3 activity
# Source text: Representative compounds were screened using primary human mesenchymal stem cells (hMSCs) to determine their ability to induce chondrogenesis (process by which cartilage is developed).
# Primary human mesenchymal stem cells (hMSCs) were purchased from Lonza (Walkersville, Md.) and expanded in Mesenchymal Stem Cell Growth Media (Lonza). Cells between passage 3 and 6 were used for the experiments.
# Area of nodules in each well was normalized to the average of 3 DMSO treated wells on the same plate using Excel (Microsoft Inc.). The normalized averages (fold change over DMSO) of 2 or 3 replicate wells for each compound concentration were calculated. Due to solubility limitations of some of the compounds, curve fitting was incomplete leading to inaccurate EC50 determinations.
# Using TGF-β3 as a positive control, the concentration of representative compounds required to induce 50% levels of chondrogenesis is reported. In addition, the maximum activity of each compound and the respective dose that each compound reached maximum chondrogenesis activity is reported.
# IL-6 (THP-1 cells) = experiment: IL-6 inhibition in LPS-stimulated THP-1 cells (HTRF); settings: Homo sapiens; IL6 by HTRF, THP-1 cells, 500 ng/mL LPS, 22 hours
# Description: THP-1 cells were cultured in basal media with 1% FBS for 24 hours before the start of the assay. […] THP-1 cells were plated at 5000 cells/well in the 384-well plates and incubated at 37° C. for 2 h. 500 ng/mL of LPS was added after 2 hours and cells were incubated for another 22 hours at 37° C. Plates were spun in a centrifuge for 1 minute at […] and a mixture of anti-IL6 XL665, and anti-IL6 Cryptate diluted in reconstitution buffer (Cisbio Inc.) was added to each well. Following incubation for 3 hrs at room temperature, Homogeneous Time-Resolved Fluorescence (HTRF) was measured using the Envision (Perkin Elmer) at 665 nm and […]. The ratio of fluorescence at 665 nm to 620 nm was used as a readout for IL6 quantification. All samples were processed in duplicate. Readings were normalized to DMSO treated cells and normalized activities were utilized for EC50 calculations using the dose-response log (inhibitor) vs. response-variable slope (four parameters) nonlinear regression feature available in GraphPad Prism 5.0 (or Dotmatics).
SMILES,pEC50 [1],pEC50 (SW480 colon cancer cells),pEC50 [2],Emax [3] [%],pEC50 (IL-6 (THP-1 cells)),EC50 [3] [nM],"inhibition at 10 µM ([1]; SW480, read-out: percent inhibition at 10 μM) [%]"
"O=C(Nc1cncc(-c2ccc3[nH]nc(-c4cc5c(N6CCCCC6)nccc5[nH]4)c3c2)c1)C1CCC1 [Compound 189, N-(5-(3-(4-(Piperidin-1-yl)-1H-pyrrolo[3,2-c]pyridin-2-yl)-1H-indazol-5-yl)pyridin-3-yl)cyclobutanecarboxamide]",6.02,6.04,6.47,34,6.63,,
"Fc1ccccc1-c1nccc2[nH]c(-c3n[nH]c4ccc(-c5cncc(CN6CCC(F)(F)C6)c5)cc34)cc12 [Compound 82, 5-(5-((3,3-Difluoropyrrolidin-1-yl)methyl)pyridin-3-yl)-3-(4-(2-fluorophenyl)-1H-pyrrolo[3,2-c]pyridin-2-yl)-1H-indazole]",6.63,6.09,6.66,172,6.74,2700,
"CS(=O)(=O)NCc1cc(F)cc(-c2nccc3[nH]c(-c4n[nH]c5ccc(-c6cncc(CN7CCC(F)(F)C7)c6)cc45)cc23)c1 [Compound 502, N-(3-(2-(5-(5-((3,3-Difluoropyrrolidin-1-yl)methyl)pyridin-3-yl)-1H-indazol-3-yl)-1H-pyrrolo[3,2-c]pyridin-4-yl)-5-fluorobenzyl)methanesulfonamide]",6.76,6.64,6.80,175,7.20,300,
"CC(C)(C)CC(=O)Nc1cncc(-c2ccc3[nH]nc(-c4cc5cnccc5[nH]4)c3c2)c1 [Compound 268, N-(5-(3-(1H-Pyrrolo[3,2-c]pyridin-2-yl)-1H-indazol-5-yl)pyridin-3-yl)-3,3-dimethylbutanamide]",6.92,6.63,6.70,208,7.03,10,
"CN1CCN(c2nccc3[nH]c(-c4n[nH]c5ccc(-c6cncc(CN7CCCCC7)c6)cc45)cc23)CC1 [Compound 239, 3-(4-(4-Methylpiperazin-1-yl)-1H-pyrrolo[3,2-c]pyridin-2-yl)-5-(5-(piperidin-1-ylmethyl)pyridin-3-yl)-1H-indazole]",< 5.00,5.43,5.29,55,5.07,900,51
"c1ncc(-c2ccc3[nH]nc(-c4cc5c(-c6ccoc6)nccc5[nH]4)c3c2)cn1 [Compound 335, 3-(4-(Furan-3-yl)-1H-pyrrolo[3,2-c]pyridin-2-yl)-5-(pyrimidin-5-yl)-1H-indazole]",5.72,6.36,6.46,40,6.29,,
"COc1cncc(-c2ccc3[nH]nc(-c4cc5c(-c6ccsc6)nccc5[nH]4)c3c2)c1 [Compound 676, 5-(5-Methoxypyridin-3-yl)-3-(4-(thiophen-3-yl)-1H-pyrrolo[3,2-c]pyridin-2-yl)-1H-indazole]",6.09,6.30,5.68,39,5.04,,
"O=C(Nc1cncc(-c2ccc3[nH]nc(-c4cc5c(-c6ccccc6F)nccc5[nH]4)c3c2)c1)C1CCCC1 [Compound 78, N-(5-(3-(4-(2-Fluorophenyl)-1H-pyrrolo[3,2-c]pyridin-2-yl)-1H-indazol-5-yl)pyridin-3-yl)cyclopentanecarboxamide]",6.38,6.26,6.08,71,7.11,10,
"CC(C)(C)C(=O)Nc1cncc(-c2ccc3[nH]nc(-c4cc5c(N6CCCCC6)nccc5[nH]4)c3c2)c1 [Compound 176, N-(5-(3-(4-(Piperidin-1-yl)-1H-pyrrolo[3,2-c]pyridin-2-yl)-1H-indazol-5-yl)pyridin-3-yl)pivalamide]",5.88,5.87,6.19,35,6.46,,
"CC(C)C(=O)Nc1cncc(-c2ccc3[nH]nc(-c4cc5cnccc5[nH]4)c3c2)c1 [Compound 261, N-(5-(3-(1H-Pyrrolo[3,2-c]pyridin-2-yl)-1H-indazol-5-yl)pyridin-3-yl)isobutyramide]",6.85,6.48,6.44,181,6.46,2700,
"CCNCc1cncc(-c2ccc3[nH]nc(-c4cc5c(N6CCCCC6)nccc5[nH]4)c3c2)c1 [Compound 174, N-((5-(3-(4-(Piperidin-1-yl)-1H-pyrrolo[3,2-c]pyridin-2-yl)-1H-indazol-5-yl)pyridin-3-yl)methyl)ethanamine]",5.53,6.02,5.84,301,6.34,900,
"CCCC(=O)Nc1cncc(-c2ccc3[nH]nc(-c4cc5c(-c6cccc(F)c6)nccc5[nH]4)c3c2)c1 [Compound 17, N-(5-(3-(4-(3-Fluorophenyl)-1H-pyrrolo[3,2-c]pyridin-2-yl)-1H-indazol-5-yl)pyridin-3-yl)butyramide]",7.30,7.03,7.72,106,7.47,2700,
"COc1cncc(-c2ccc3[nH]nc(-c4cc5c(-c6ccoc6)nccc5[nH]4)c3c2)c1 [Compound 692, 3-(4-(Furan-3-yl)-1H-pyrrolo[3,2-c]pyridin-2-yl)-5-(5-methoxypyridin-3-yl)-1H-indazole]",6.51,6.64,6.13,20,5.34,,
"COc1cncc(-c2ccc3[nH]nc(-c4cc5c(-c6ccco6)nccc5[nH]4)c3c2)c1 [Compound 991, 3-(4-(Furan-2-yl)-1H-pyrrolo[3,2-c]pyridin-2-yl)-5-(5-methoxypyridin-3-yl)-1H-indazole]",5.99,5.82,,36,5.12,,
"Fc1ccc(-c2nccc3[nH]c(-c4n[nH]c5ccc(-c6cn[nH]c6)cc45)cc23)cc1 [Compound 523, 3-(4-(4-Fluorophenyl)-1H-pyrrolo[3,2-c]pyridin-2-yl)-5-(1H-pyrazol-4-yl)-1H-indazole]",6.95,6.08,6.79,,7.04,,
